# According to US20190358181A1, “METHODS FOR AUTISM SPECTRUM DISORDER PHARMACOTHERAPY” (priority 2017, published 2019):
# Test system: 610 metabolites from 63 biochemical pathways
# Experiment: Targeted broad-spectrum plasma metabolomic analysis (LC-MS/MS), paired pre-infusion vs post-infusion (2-days and 6-weeks)
# Assay type: in vivo, human
# Conditions: for Linear Ratio / VIP Score / Z Abs / Z Score: plasma
# Description: Targeted, broad-spectrum, plasma metabolomic analysis of 610 metabolites from 63 biochemical pathways was performed by high performance liquid chromatography and tandem mass spectrometry (LC-MS/MS) on the samples collected from patients in Example 1. Venous blood was collected between the hours of 8 am and 5 pm, at least 3 hours after the last meal, into lithium-heparin vacutainer tubes (BD #367884). Plasma was separated by centrifugation at 900 g×10 minutes at room temperature within one hour of collection. The resulting fresh lithium-heparin plasma was transferred to labeled 1.2 ml or 2.0 ml externally threaded cryotubes with a minimum headspace air gap for storage at −80° C. for analysis. Samples were analyzed on an AB SCIEX QTRAP 5500 triple quadrupole mass spectrometer equipped with a Turbo V electrospray ionization (ESI) source, Shimadzu LC-20A UHPLC system, and a PAL CTC autosampler. Typically, 90 μl of plasma was thawed on ice and transferred to a 1.7 ml Eppendorf tube. Five (5.0) μl of a cocktail containing 25-35 commercial stable isotope internal standards, and 5.0 μl of 57 stable isotope internal standards that were custom-synthesized in E. coli NCM3722, Caenorhabditis elegans N2, and Komagataella phaffii (ATCC 76273; formerly known as Pichia pastoris) by metabolic labeling with 13C-glucose and 13C-bicarbonate, were added, mixed, and incubated for 10 min at 20° C. to permit small molecules and vitamins in the internal standards to associate with plasma binding proteins. Macromolecules (protein, DNA, RNA, glycans, etc.) were precipitated by extraction with 4 volumes (400 μl) of cold (−20° C.), acetonitrile:methanol (50:50) (LCMS grade, Cat #LC015-2.5 and GC230-4, Burdick & Jackson, Honeywell), vortexed vigorously, and incubated on crushed ice for 10 min, then removed by centrifugation at 16,000 g×10 min at 4° C. The supernatants containing the extracted metabolites and internal standards in the resulting 40:40:20 solvent mix of acetonitrile:methanol:water were transferred to labeled cryotubes and stored at −80° C. for LCMS/MS analysis.
# LC-MS/MS analysis was performed by scheduled multiple reaction monitoring (sMRM) under Analyst v1.6.2 software control in both negative and positive mode with rapid polarity switching (50 ms). Nitrogen was used for curtain gas (set to 30), collision gas (set to high), ion source gas 1 and 2 (set to 35). The source temperature was 500° C. Spray voltage was set to −4500 V in negative mode and 5500 V in positive mode. The values for Q1 and Q3 mass-to-charge ratios (m/z), declustering potential (DP), entrance potential (EP), collision energy (CE), and collision cell exit potential (CXP) were determined and optimized for each MRM for each metabolite. Ten microliters of extract was injected by PAL CTC autosampler via a 10 μl stainless steel loop into a 250 mm×2.0 mm, 4 μm polymer based NH2 HPLC column (Asahipak NH2P-40 2E, Showa Denko America, Inc., NY) held at 25° C. for chromatographic separation. The mobile phase was solvent A: 95% water with 20 mM (NH4)2CO3 (Sigma, Fluka Cat #74415-250G-F), 5% acetonitrile, and 38 mM NH4OH (Sigma, Fluka Cat #17837-100ML), final pH 9.75; solvent B: 100% acetonitrile. Separation was achieved using the following gradient: 0-3.5 min: 95% B, 3.6-8 min: 85% B, 8.1-13 min: 75% B, 13.5-35 min: 0% B, 36-46 min: 95% B, 46.1 min: end. The flow rate was 200 μl/min. Pump pressures ranged from 920-2600 psi over the course of the gradient. All the samples were kept at 4° C. during analysis. The chromatographic peaks were identified using MultiQuant (v3.0, Sciex), confirmed by manual inspection, and the peak areas integrated. […]
# [1] = Branch Chain Amino Acid Metabolism, 2-days
# [2] = Branch Chain Amino Acid Metabolism, 6-weeks
# [3] = Chenodeoxyglycocholic acid, 6-weeks
# [4] = Cholesterol, Cortisol, Non-Gonadal Steroid Metabolism, 6-weeks
# [5] = Cholesterol, Cortisol, Non-Gonadal Steroid, 2-days
# [6] = Cyclic adenosine monophosphate, 6-weeks
# [7] = Deoxy guanosine diphosphate, 6-weeks
# [8] = Eicosanoid and Resolvin Metabolism, 2-days
# [9] = Endocannabinoid Metabolism, 2-days
# [10] = Fatty Acid Oxidation and Synthesis, 2-days
# [11] = Fatty Acid Oxidation and Synthesis, 6-weeks
smiles,measurement,setting,value
"Cc1ccc(C(=O)Nc2ccc(S(=O)(=O)O)c3cc(S(=O)(=O)O)cc(S(=O)(=O)O)c23)cc1NC(=O)c1cccc(NC(=O)Nc2cccc(C(=O)Nc3cc(C(=O)Nc4ccc(S(=O)(=O)O)c5cc(S(=O)(=O)O)cc(S(=O)(=O)O)c45)ccc3C)c2)c1 [Suramin, suramin]",Fold Enrichment (Obs/Exp),[1],2.4
same,Fraction of Impact (VIP Score) Explained (% of 119.7),[1],6%
same,Impact (Sum VIP Score),[1],7.3
same,Increased,[1],4
same,Observed Hits in the Top 61 Metabolites,[1],4
same,Decreased,[2],0
same,Fold Enrichment (Obs/Exp),[2],3.0
same,Fraction of Impact (VIP Score) Explained (% of 94.6),[2],8%
same,Impact (Sum VIP Score),[2],7.4
same,Increased,[2],4
same,Observed Hits in the Top 48 Metabolites,[2],4
same,Decreased,"Cardiolipin Metabolism, 2-days",0
same,Fold Enrichment (Obs/Exp),"Cardiolipin Metabolism, 2-days",2.0
same,Fraction of Impact (VIP Score) Explained (% of 119.7),"Cardiolipin Metabolism, 2-days",3%
same,Impact (Sum VIP Score),"Cardiolipin Metabolism, 2-days",3.1
same,Increased,"Cardiolipin Metabolism, 2-days",2
same,Observed Hits in the Top 61 Metabolites,"Cardiolipin Metabolism, 2-days",2
same,Decreased,"Ceramide Metabolism, 2-days",0
same,Fold Enrichment (Obs/Exp),"Ceramide Metabolism, 2-days",0.2
same,Fraction of Impact (VIP Score) Explained (% of 119.7),"Ceramide Metabolism, 2-days",1%
same,Impact (Sum VIP Score),"Ceramide Metabolism, 2-days",1.5
same,Increased,"Ceramide Metabolism, 2-days",1
same,Observed Hits in the Top 61 Metabolites,"Ceramide Metabolism, 2-days",1
same,Linear Ratio,"Chenodeoxycholic acid, 6-weeks",2.080
same,VIP Score,"Chenodeoxycholic acid, 6-weeks",1.670
same,Z Abs,"Chenodeoxycholic acid, 6-weeks",1.575
same,Z Score,"Chenodeoxycholic acid, 6-weeks",1.575
same,Linear Ratio,[3],2.858
same,VIP Score,[3],2.052
same,Z Abs,[3],1.650
same,Z Score,[3],1.650
same,Decreased,[4],0
same,Fold Enrichment (Obs/Exp),[4],1.1
same,Fraction of Impact (VIP Score) Explained (% of 94.6),[4],4%
same,Impact (Sum VIP Score),[4],3.5
same,Increased,[4],2
same,Observed Hits in the Top 48 Metabolites,[4],2
same,Decreased,[5],0
same,Fold Enrichment (Obs/Exp),[5],0.4
same,Fraction of Impact (VIP Score) Explained (% of 119.7),[5],2%
same,Impact (Sum VIP Score),[5],1.8
same,Increased,[5],1
same,Observed Hits in the Top 61 Metabolites,[5],1
same,Linear Ratio,"Cinnamoylglycine, 6-weeks",1.190
same,VIP Score,"Cinnamoylglycine, 6-weeks",1.790
same,Z Abs,"Cinnamoylglycine, 6-weeks",2.218
same,Z Score,"Cinnamoylglycine, 6-weeks",2.218
same,Linear Ratio,"Citric acid, 6-weeks",1.363
same,VIP Score,"Citric acid, 6-weeks",2.410
same,Z Abs,"Citric acid, 6-weeks",1.772
same,Z Score,"Citric acid, 6-weeks",1.772
same,Linear Ratio,[6],0.701
same,VIP Score,[6],1.962
same,Z Abs,[6],1.544
same,Z Score,[6],−1.544
same,Linear Ratio,"Cysteamine, 6-weeks",1.157
same,VIP Score,"Cysteamine, 6-weeks",2.060
same,Z Abs,"Cysteamine, 6-weeks",2.007
same,Z Score,"Cysteamine, 6-weeks",2.007
same,Linear Ratio,"Cytosine, 6-weeks",1.932
same,VIP Score,"Cytosine, 6-weeks",2.442
same,Z Abs,"Cytosine, 6-weeks",2.582
same,Z Score,"Cytosine, 6-weeks",2.582
same,Linear Ratio,"Decanoylcarnitine, 6-weeks",0.644
same,VIP Score,"Decanoylcarnitine, 6-weeks",1.617
same,Z Abs,"Decanoylcarnitine, 6-weeks",1.157
same,Z Score,"Decanoylcarnitine, 6-weeks",−1.157
same,Linear Ratio,[7],0.864
same,VIP Score,[7],1.915
same,Z Abs,[7],1.583
same,Z Score,[7],−1.583
same,Decreased,[8],4
same,Fold Enrichment (Obs/Exp),[8],2.2
same,Fraction of Impact (VIP Score) Explained (% of 119.7),[8],6%
same,Impact (Sum VIP Score),[8],7.1
same,Increased,[8],0
same,Observed Hits in the Top 61 Metabolites,[8],4
same,Decreased,[9],1
same,Fold Enrichment (Obs/Exp),[9],1.8
same,Fraction of Impact (VIP Score) Explained (% of 119.7),[9],1%
same,Impact (Sum VIP Score),[9],1.7
same,Increased,[9],0
same,Observed Hits in the Top 61 Metabolites,[9],1
same,Decreased,[10],1
same,Fold Enrichment (Obs/Exp),[10],0.2
same,Fraction of Impact (VIP Score) Explained (% of 119.7),[10],2%
same,Impact (Sum VIP Score),[10],1.8
same,Increased,[10],0
same,Observed Hits in the Top 61 Metabolites,[10],1
same,Decreased,[11],3
same,Fold Enrichment (Obs/Exp),[11],0.7
same,Fraction of Impact (VIP Score) Explained (% of 94.6),[11],5%
same,Impact (Sum VIP Score),[11],5.0
